Assay [1] concerns the target T1, L-methionine gamma-lyase (Fusobacterium nucleatum subsp. nucleatum) (UniProt Q8RDT4).
T1 sequence (whole entry): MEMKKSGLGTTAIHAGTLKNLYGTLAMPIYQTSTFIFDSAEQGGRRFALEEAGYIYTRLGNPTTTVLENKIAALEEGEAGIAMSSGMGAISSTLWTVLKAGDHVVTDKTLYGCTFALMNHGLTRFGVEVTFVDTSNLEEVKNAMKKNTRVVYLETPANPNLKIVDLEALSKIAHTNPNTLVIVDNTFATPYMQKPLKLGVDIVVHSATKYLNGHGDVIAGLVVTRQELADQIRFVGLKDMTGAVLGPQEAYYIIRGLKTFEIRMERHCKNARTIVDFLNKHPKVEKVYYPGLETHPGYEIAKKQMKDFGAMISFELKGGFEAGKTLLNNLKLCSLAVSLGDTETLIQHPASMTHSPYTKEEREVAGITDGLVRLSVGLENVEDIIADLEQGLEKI
Briefly: Inhibition of Fusobacterium nucleatum ATCC 25586 recombinant wild type MGL expressed in Escherichia coli BL21 (DE3) assessed as decrease in signal intensity by 19F NMR based competition assay relative to control. Further details: concentration or dose not given beside the values.

The target in assay [2] is T1, L-methionine gamma-lyase (Fusobacterium nucleatum subsp. nucleatum). In words: Inhibition of Fusobacterium nucleatum ATCC 25586 recombinant wild type MGL expressed in Escherichia coli BL21 (DE3) assessed as formation of 2-ketobutyrate using L-methionine as substrate by enzymatic assay. Further details: concentration or dose not given beside the values. To be noted: concentration not given here.

Assay [3] has as its system Fusobacterium nucleatum. In words: Inhibition of Fusobacterium nucleatum ATCC 25586 recombinant MGL Y56F mutant expressed in Escherichia coli BL21 (DE3) assessed as decrease in signal intensity by measuring recovery ratio by 19F NMR based competition assay relative to wild type. Details: concentration or dose not given beside the values.
For assay [4], the system named is Fusobacterium nucleatum. Briefly: Inhibition of Fusobacterium nucleatum ATCC 25586 recombinant MGL R58A mutant expressed in Escherichia coli BL21 (DE3) assessed as decrease in signal intensity by measuring recovery ratio by 19F NMR based competition assay relative to wild type. Further details: scale not given: the % may be the effect or the level left.
Assay [5] has as its system Fusobacterium nucleatum. In words: Inhibition of Fusobacterium nucleatum ATCC 25586 recombinant MGL R58K mutant expressed in Escherichia coli BL21 (DE3) assessed as decrease in signal intensity by measuring recovery ratio by 19F NMR based competition assay relative to wild type. Further details: scale not given: the % may be the effect or the level left.
The test system of assay [6] is Fusobacterium nucleatum. Briefly: Inhibition of Fusobacterium nucleatum ATCC 25586 recombinant MGL Y111F mutant expressed in Escherichia coli BL21 (DE3) assessed as decrease in signal intensity by measuring recovery ratio by 19F NMR based competition assay relative to wild type. Further details: concentration or dose not given beside the values.
Assay [7] relates to Fusobacterium nucleatum. In words: Inhibition of Fusobacterium nucleatum ATCC 25586 recombinant MGL C113S mutant expressed in Escherichia coli BL21 (DE3) assessed as decrease in signal intensity by measuring recovery ratio by 19F NMR based competition assay relative to wild type. Further details: scale not given: the % may be the effect or the level left.
Assay [8] has as its system Fusobacterium nucleatum. Briefly: Inhibition of Fusobacterium nucleatum ATCC 25586 recombinant MGL K238A mutant expressed in Escherichia coli BL21 (DE3) assessed as decrease in signal intensity by measuring recovery ratio by 19F NMR based competition assay relative to wild type. Further details: concentration or dose not given beside the values.
Assay [9] deals with Fusobacterium nucleatum. In words: Inhibition of Fusobacterium nucleatum ATCC 25586 recombinant MGL R373A mutant expressed in Escherichia coli BL21 (DE3) assessed as decrease in signal intensity by measuring recovery ratio by 19F NMR based competition assay relative to wild type. Further details: scale not given: the % may be the effect or the level left.
Assay [10] relates to Fusobacterium nucleatum. In words: Inhibition of Fusobacterium nucleatum ATCC 25586 recombinant MGL R373K mutant expressed in Escherichia coli BL21 (DE3) assessed as decrease in signal intensity by measuring recovery ratio by 19F NMR based competition assay relative to wild type. Further details: concentration or dose not given beside the values.

Active and inactive are the calls of the source. The rule behind the calls is not given here.

This note sets out measurements from ChEMBL document CHEMBL4837259, “Comprehensive Approach of 19F Nuclear Magnetic Resonance, Enzymatic, and In Silico Methods for Site-Specific Hit Selection and Validation of Fragment Molecules that Inhibit Methionine γ-Lyase Activity” (J Med Chem, 2021).

Usually inhibition stands for the relative decrease from the control value, in per cent.

Turning to `O=C(O)c1cnc(OCC(F)(F)F)cn1`, the Activity in assay [1] stood at 49%; in the assay with Fusobacterium nucleatum [3], 80%; in the assay on Fusobacterium nucleatum [4] it was 80%; in the assay with Fusobacterium nucleatum [5], 80%; with Fusobacterium nucleatum [8], 50%; in the assay with Fusobacterium nucleatum [9], 80%. Besides, the inhibition in assay [2] was 4.4%. Moreover, the outcome in the assay with Fusobacterium nucleatum [6], with Fusobacterium nucleatum [7] and in the assay with Fusobacterium nucleatum [10] was Active.

`CCOC(=O)c1nc(-c2ccc(F)cc2)no1`: the Activity was found to be 84% in [1]; 80% in the assay on Fusobacterium nucleatum [3]; 80% in the assay with Fusobacterium nucleatum [4]; 50% in the assay on Fusobacterium nucleatum [5]; 50% with Fusobacterium nucleatum [6]; 80% with Fusobacterium nucleatum [9]. Moreover, the Activity in the assay with Fusobacterium nucleatum [10] was 50%. For the same compound, the inhibition in assay [2] came to 33.1%. In addition, the outcome in the assay on Fusobacterium nucleatum [7] and with Fusobacterium nucleatum [8] was Active.

Take `O=C(O)c1cc(C(F)(F)F)nn1-c1ccccc1`: the Activity in [1] turned out to be 49%; in the assay on Fusobacterium nucleatum [3], 80%; in the assay with Fusobacterium nucleatum [4], 80%; with Fusobacterium nucleatum [5] it was 80%; in the assay on Fusobacterium nucleatum [6], 80%; in the assay with Fusobacterium nucleatum [7], 50%. The Activity in the assay on Fusobacterium nucleatum [9] came to 50%. In [2], the inhibition was 23.9%. Further, the result in the assay with Fusobacterium nucleatum [8] and with Fusobacterium nucleatum [10] was Active.

For `O=C(O)c1cn(-c2ccccc2F)cn1`, the Activity in [1] turned out to be 26%; in the assay with Fusobacterium nucleatum [4], 80%; with Fusobacterium nucleatum [5], 80%; with Fusobacterium nucleatum [9], 50%. Besides, the inhibition in [2] was -5.3%. For the same compound, the result in the assay with Fusobacterium nucleatum [3], with Fusobacterium nucleatum [6], with Fusobacterium nucleatum [7] and with Fusobacterium nucleatum [10] was Active. In addition, the result in the assay on Fusobacterium nucleatum [8] was inactive.
